From patent US20080274096A1, “Fusion Proteins Having a Modulated Half-Life in Plasma” (ASTRAZENECA AB, priority 2005, published 2008)

Assays:
Assay type in all cases: biochemical
[1] = target: T1, Human recombinant Neprilysin (Homo sapiens, UniProt P08473); experiment: Inhibition of added Neprilysin degradation of Aβ40 in guinea pig plasma; parameters: purchased R&D Systems; host or cells: enzyme added to pooled heparinized guinea pig plasma; conditions: 10 microM Phosphoramidon
Experimental: Blood was withdrawn from anaesthetized guinea pigs by heart puncture. The blood were collected into prechilled heparin-plasma tubes and centrifuged for 10 min at 4° C. at 3000×g within 20 minutes of sampling. Plasma samples were transferred to pre-chilled polypropylene tubes and immediately frozen on dry ice and stored at −70° C. prior to use. The experiments were performed on a pool of plasma from 5-6 guinea pigs.
Human recombinant Neprilysin in a buffer containing 25 mM Tris and 100 mM NaCl pH 8 (R&D Systems) or buffer only (i.e. vehicle) was incubated with guinea pig plasma at 37° C. for 0-360 minutes in presence or absents of 10 microM phosphoramidon (Biomol). A final concentration of 4.7 mM EDTA was added into the tubes before the amount of Aβ1-40 or Aβ1-42 was analyzed by using commercial ELISA kits obtained from Biosource (Aβ1-40) or Innogenetics (Aβ1-42).

[2] = target: T1, Human recombinant Neprilysin; experiment: Inhibition of Neprilysin degradation of amyloid β1-40 peptide in buffer; parameters: Degradation of Amyloid β Peptide by Soluble Neprilysin; purchased R&D Systems; conditions: 10 microM Phosphoramidone; Neprilysin 1.8 μg/ml; 3 hours, 37° C.
Experimental: The assay is measuring the remaining amyloid β1-40 peptide (Bachem) concentration following its incubation in the presence of Neprilysin (R&D Systems) with or without Neprilysin inhibitor. 100 μl of reaction mixture containing of amyloid β1-40 peptide (final concentration 1 or 10 μM) and/or Neprilysin (1.8 μg/ml), and/or Phosphoramidone (10 μM) was incubated in a round bottom 96-well polypropylene plate at 37° C. for 3 hours. Following incubation, 50 μl of antibodies solution containing anti-Aβ40 (final concentration 0.125 μg/ml; Biosource) and Biotinylated 6E10 (final concentration 0.125 μg/ml; Signet) antibodies was added to each well. Plate was incubated at RT for 3 h. Following incubation, 50 μl of detection mixture of Dynabeads M280 (Dynal Biotech ASA) and secondary antibody Ru-GαR (final concentration 0.132 μg/ml) was added to all wells. Plate was incubated on a shaker at RT for 1 h and results were recorded on IGEN/Bio Veris M8 analyser. Amyloid β1-40 peptide degradation by Neprilysin was calculated as a percentage of Amyloid β1-40 peptide left after incubation in the presence of Neprilysin compared to the amyloid β1-40 peptide concentration in the absence of Neprilysin.

[3] = system: amyloid β peptide; experiment: Two-compartment membrane experiment, degradation of amyloid β peptide; conditions: degradation in one compartment connected through a membrane
Experimental: An experiment is performed to investigate the possibility to remove amyloid β peptide from one compartment by degradation in another compartment connected through a membrane. A similar experiment was conducted using an antibody as an amyloid β peptide agent. The experiment is described by DeMattos et al., (PNAS, 2001). By degrading the amyloid β peptide with neprilysin and/or NEP-Fc in one compartment the concentration of amyloid β peptide in the other compartment is decreased. Importantly, neprilysin or NEP-Fc cannot cross the membrane due to its high molecular weight (161.000 Da and 211.000 Da, respectively).

T1 sequence (P08473 52-750 limits assumed): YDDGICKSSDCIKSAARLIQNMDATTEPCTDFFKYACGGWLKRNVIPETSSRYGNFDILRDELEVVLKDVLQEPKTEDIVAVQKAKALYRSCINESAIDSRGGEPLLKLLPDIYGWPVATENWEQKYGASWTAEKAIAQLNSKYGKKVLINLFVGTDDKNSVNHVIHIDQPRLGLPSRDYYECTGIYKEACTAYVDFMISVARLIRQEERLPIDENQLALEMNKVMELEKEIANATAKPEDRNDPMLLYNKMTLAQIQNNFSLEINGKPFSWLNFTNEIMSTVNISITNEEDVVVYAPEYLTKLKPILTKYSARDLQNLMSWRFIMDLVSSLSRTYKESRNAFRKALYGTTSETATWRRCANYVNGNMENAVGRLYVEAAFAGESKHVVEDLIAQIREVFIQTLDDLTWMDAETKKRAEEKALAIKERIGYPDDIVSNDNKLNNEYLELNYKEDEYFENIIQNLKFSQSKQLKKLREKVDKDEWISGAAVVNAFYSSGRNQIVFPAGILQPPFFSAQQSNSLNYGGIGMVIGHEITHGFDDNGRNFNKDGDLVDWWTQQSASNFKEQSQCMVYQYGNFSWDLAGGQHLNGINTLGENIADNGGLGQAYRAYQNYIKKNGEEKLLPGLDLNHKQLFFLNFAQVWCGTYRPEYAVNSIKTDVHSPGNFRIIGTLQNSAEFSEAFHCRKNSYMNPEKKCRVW

Degradation of Aβ40 by added Neprilysin in the presence of inhibitor [1]	Neprilysin activity (Aβ1-40 degradation) in the presence of inhibitor [2]	Molecule	Concentration of amyloid β peptide in the other compartment [3]
inhibited	completely abolished	CC(C)C[C@H](NP(=O)(O)O[C@@H]1O[C@@H](C)[C@H](O)[C@@H](O)[C@H]1O)C(=O)N[C@@H](Cc1c[nH]c2ccccc12)C(=O)O [Phosphoramidon]	
		NEP-Fc: extracellular domain of Neprilysin fused to the IgG4 Fc domain including hinge region, SEQ ID 8	decreased
